From article PMC9403717, “Ruthenium complexes show potent inhibition of AKR1C1, AKR1C2, and AKR1C3 enzymes and anti-proliferative action against chemoresistant ovarian cancer cell line” (Frontiers in Pharmacology, 2022)

Tests used:
[1] = system: OVCAR-4 cells; assay: Cell proliferation assay (alamarBlue), OVCAR-4; assay type: cell-based, human; conditions: for IC50: OVCAR-4, 48 h incubation
Procedure: The cell line COV362 (CVCL_2,420) was originally established from a high-grade ovarian serous adenocarcinoma from a metastatic site in the pleural effusion ([van den Berg-Bakker et al., 1993]) and was purchased from ECACC (ECACC 07071910) as p37 on 13 October 2017. The growth medium for COV362 cells was DMEM (D5546; Sigma–Aldrich GmbH), with 10% FBS (F9665; Sigma–Aldrich GmbH) and 2 mM L-glutamine (G7513; Sigma–Aldrich GmbH). COV362 cells in passages p37 + 12 to p37 + 17 were used in this study and seeded at a concentration of 3.5 cells/ml × 10^4 cells/ml for proliferation studies and at a concentration of 5.3 × 10^5/ml for migration studies. The cell line OVCAR-4 (CVCL_1,627) is a high-grade serous ovarian adenocarcinoma cell line established from a patient refractory to cisplatin ([Johnson et al., 1997]). The cell line was purchased from Merck on 19 March 2021. The growth medium for OVCAR-4 cells was RPMI-1640 (Sigma R5586) supplemented with 2 mM glutamine (G7513; Sigma–Aldrich GmbH), 10% FBS (F9665; Sigma–Aldrich GmbH), 0.25 μg/ml insulin (I9278; Sigma–Aldrich GmbH). OVCAR-4 cells in passages p+6 to p+15 were used in this study and seeded at a concentration of 6 cells/ml × 10^4 cells/ml. The control cell line HIO80 (CVCL_E274) was obtained from Andrew K. Godwin (University of Kansas Medical Center, Kansas, United States) on 20 October 2017 as p+72. It was originally established from ovarian surface epithelium ([Yang et al., 2004]). HIO80 cells were grown in RPMI medium (R5886, Sigma–Aldrich GmbH) supplemented with 10% FBS (F9665; Sigma–Aldrich GmbH), 2 mm L-glutamine (G7513; Sigma–Aldrich GmbH) and 6.6 µg/ml insulin (I9278; Sigma–Aldrich GmbH). HIO80 cells in passages p72 + 8 to p72 + 19 were used in this study and seeded at a concentration of 2 × 10^4 cells/mL. HIO80 in passage +10 was authenticated by short tandem repeats (STR) profiling performed by ATCC on 22 February 2019. Cells were grown in a humidified atmosphere containing 5% CO2 at 37°C. All cell lines were negative for mycoplasma infection which was periodically tested using MycoAlert^TM mycoplasma detection kit (Lonza, Basel, Switzerland).
The effect of ruthenium compounds on the proliferation of ovarian cancer cell lines COV362 and OVCAR-4 and the control cell line HIO80 was analyzed using the cell proliferation reagent alamarBlue HS (A50101; Thermo Fisher Scientific) following the manufacturer’s instructions.
Cells were seeded in 96-well plates in 100 µL of medium and allowed to adhere and grow for 24 h. […] Cisplatin and carboplatin purchased from Sigma–Aldrich GmbH (cat. number: PHR1624, lot: LRAB7778) and (cat. number: C2538, lot: MKCK1243) were dissolved in sterile water. Working solutions were prepared by a serial dilution of stock solutions with a culture medium. After the initial incubation, cells were treated with ruthenium complexes, cisplatin, and carboplatin. A range of final concentrations between 0.001 and 300 µM were used for ruthenium complexes and cisplatin, and between 0.001 µM and 1 mM for carboplatin. After 48 h of incubation, plates were incubated with 20 µL of alamarBlue. After 4 h absorbance was measured with a BioTek microplate spectrophotometer at 570 nm, with the reference wavelength set at 600 nm. First, the background value of a well containing the active substance without cells was subtracted, then the average values for duplicates/triplicates were calculated. The absorbance of the well containing only untreated cells was used as a normalization control. The half-maximal […] concentration (IC50) was determined for all ruthenium complexes with a growth-inhibiting effect on cells by constructing a dose-response curve (Graph Pad Prism, Version 8.0).

[2] = system: COV362 cells; assay: Cell migration assay (Ibidi culture inserts), COV362; assay type: cell-based, human; conditions: 100 μM; for effect on cell migration (in words): 24 and 48 h
Procedure: Cell migration assay was performed using Ibidi® three-well culture inserts. The inserts were placed in six-well plates. In total, 70 µL of cell suspension was seeded in the inserts and allowed to adhere and grow for 24 h. When the cells formed a confluent monolayer, the inserts were carefully removed and the cells were washed two times with DPBS. Cells were treated with 100 μM (final concentration) of compounds 8, 9, cisplatin, and carboplatin in 2 ml of growth medium. Cells treated with a medium containing the same volume of sterile water or DMSO were used as the controls. Images of cell gaps were taken with Axio Scope A1 Polarized Light Microscope (Zeiss) at the time of treatment, 24 and 48 h after, and analyzed using ImageJ software.

Question: What does the source list for `Cc1ccc(C(C)C)cc1.O=[N+]([O-])c1ccc([O][Ru][Cl])c2ncccc12` [Compound 9, (η ^6-p-Cymene) (nitroxolinato)chloridoruthenium (II)]?
Answer: fold lower IC50 value on OVCAR-4 compared to COV362 [1]: 1.5 fold; IC50 [1]: 14.4 µM; effect on cell migration (in words) [2]: prevented migration; cytotoxic effect in migration assay (in words) ([2]; after 48 h incubation): cytotoxic effect

Question: Which results are given for `C1N2CN3CN1CP(C2)C3.Cc1ccc(C(C)C)cc1.F[P-](F)(F)(F)(F)F.[O-]c1c(I)cc(Cl)c2cccnc12.[Ru+2]` [Compound 8]?
Answer: fold higher IC50 value on OVCAR-4 compared to COV362 [1]: 2.6 fold; IC50 [1]: 97.5 µM; effect on cell migration (in words) [2]: inhibited cell migration similarly to cisplatin

Question: Which “fold higher IC50 value on OVCAR-4 compared to COV362” value [1] does the source give for `Cc1ccc(C(C)C)cc1.[Cl-].[O-]c1c(I)cc(Cl)c2cccnc12.[Ru+2]` [Compound 7] here?
Answer: The value was 1.6 fold.

Question: What about the IC50 [1] of the same compound?
Answer: Its IC50 is 28.1 µM.
